Measured values published in PMC10892818, “An Antiherpesviral Host-Directed Strategy Based on CDK7 Covalently Binding Drugs: Target-Selective, Picomolar-Dose, Cross-Virus Reactivity” (Pharmaceutics, 2024).
Values after ≈ are worked out from the molar mass of the structure shown.

Assays:
in vivo = assay: in vivo
Procedure: Later, this drug served as the parental compound for the generation of novel covalently binding CDK7-directed warheads (Figure 2A, panels a–h). To reveal LDC4297, a chemical library was designed in silico for the targeting of kinases and was applied for screening against human CDK7–cyclin H–MAT1 by the use of in vitro kinase assays. […] In particular, a kinome-wide analysis with 333 individual kinases was performed to assess compound selectivity in vitro.
(A) Chemical linkage of an acceptor for the Michael 1,4 addition reaction was performed to generate QRS compounds 6, 7, and 9. Through the covalent binding of host target CDK7, a block of virus-supportive functions was achieved, and further details on this antiviral strategy were described elsewhere (a,b; c,d, this study, and Yu et al., in preparation; d–f; f–h). (B) Determination of in vitro eADME parameters (early […]-distribution-metabilism-excretion) and pharmacokinetics (PK) parameters, including mean plasma concentrations in vivo (male CD-1® mice).

human CDK7–cyclin H–MAT1 = system: human CDK7–cyclin H–MAT1; design: method as in PMID 25624324; details: cited from earlier work
CDK7–cyclin H–MAT1 = target: T1, CDK7–cyclin H–MAT1 (Homo sapiens, UniProt P50613); design: method as in PMID 25624324; details: kinome-wide panel of 333 kinases; cited from earlier work
T1 construct: purchased Invitrogen PR6749B
T1 sequence (P50613 whole entry): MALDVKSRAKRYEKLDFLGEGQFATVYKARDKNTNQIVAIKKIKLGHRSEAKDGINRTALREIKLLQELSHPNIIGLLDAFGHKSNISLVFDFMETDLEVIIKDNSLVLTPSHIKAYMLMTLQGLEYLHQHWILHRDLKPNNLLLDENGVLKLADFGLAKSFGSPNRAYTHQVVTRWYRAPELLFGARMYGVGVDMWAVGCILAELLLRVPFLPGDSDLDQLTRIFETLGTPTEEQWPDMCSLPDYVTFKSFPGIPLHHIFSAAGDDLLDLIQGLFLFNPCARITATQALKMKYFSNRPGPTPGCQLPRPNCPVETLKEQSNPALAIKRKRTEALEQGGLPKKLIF
T1 sequence (P51946 whole entry partner): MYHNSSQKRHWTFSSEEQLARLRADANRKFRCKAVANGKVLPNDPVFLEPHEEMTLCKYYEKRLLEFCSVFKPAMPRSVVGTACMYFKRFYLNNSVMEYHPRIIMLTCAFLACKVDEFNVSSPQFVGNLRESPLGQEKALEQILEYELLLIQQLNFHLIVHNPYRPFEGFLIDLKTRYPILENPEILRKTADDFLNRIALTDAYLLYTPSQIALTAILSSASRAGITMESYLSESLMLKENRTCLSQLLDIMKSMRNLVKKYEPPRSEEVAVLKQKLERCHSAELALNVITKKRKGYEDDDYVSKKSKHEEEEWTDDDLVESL
T1 sequence (P51948 whole entry partner): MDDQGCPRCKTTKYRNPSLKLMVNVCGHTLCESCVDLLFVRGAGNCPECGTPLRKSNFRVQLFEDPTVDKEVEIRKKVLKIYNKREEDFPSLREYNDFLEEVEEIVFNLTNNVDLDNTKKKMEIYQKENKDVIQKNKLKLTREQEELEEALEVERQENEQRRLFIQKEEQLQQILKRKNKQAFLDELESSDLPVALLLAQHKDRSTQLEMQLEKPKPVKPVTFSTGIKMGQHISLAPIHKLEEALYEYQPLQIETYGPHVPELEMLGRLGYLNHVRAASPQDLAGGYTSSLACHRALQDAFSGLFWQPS

PAMPA = format: in vitro ADME; details: pH 7.4
HCMV-encoded vCDK/pUL97 = system: HCMV-encoded vCDK/pUL97; design: method as in PMID 37591314; details: cited from earlier work
[1] = format: in vitro ADME
[2] = Plasma protein binding, mouse; format: in vitro ADME; details: read-out: Plasma protein binding (% bound) mouse (converted)
HCMV AD169-GFP = system: HCMV AD169-GFP; design: method as in PMID 25624324; details: read-out: antiviral EC50 value (HCMV); cited from earlier work
[3] = Caco-2 permeability assay; format: in vitro ADME; details: human
Solubility (SolRank) = format: physicochemical; details: pH 7.4
[4] = format: in vitro ADME; remark: listed apart in the source
[5] = Plasma protein binding, human; format: in vitro ADME; details: read-out: Plasma protein binding (% bound) human (converted)
[6] = male, CD-1, mouse, in vivo, po, 100 mg/kg

Question: With CC(C)c1cnn2c(NCc3ccccc3-n3cccn3)nc(OC3CCCNC3)nc12 (centres unmarked) [LDC4297] as the compound, how does the AUC(0-inf) (in vivo; [6]) read?
Answer: Its AUC(0-inf) is 3620 ng·h/mL.

Question: And the AUC(0-t) (in vivo; [6])?
Answer: Its AUC(0-t) is 3520 ng·h/mL.

Question: And the Cmax (in vivo; [6])?
Answer: Its Cmax is 1300 ng/mL.

Question: What about the Tmax (in vivo; [6]) of the same compound?
Answer: Its Tmax is 0.5 h.

Question: And the bioavailability (in vivo; [6])?
Answer: The bioavailability was 97.7%.

Question: And the half-life (in vivo; [6])?
Answer: Its half-life is 1.6 h.

Question: And the tz (in vivo; [6])?
Answer: Its tz is 8 h.

Question: And the concentration at 8 h (in vivo; male, CD-1, mouse, in vivo, po, 100 mg/kg, Cz, mouse 100 mg/kg p.o.)?
Answer: Its concentration at 8 h is 43.2 ng/mL.

Question: And the concentration at 0 min (in vivo; male, CD-1, mouse, in vivo, po, 100 mg/kg, Mean plasma concentration, mouse 100 mg/kg p.o., sampling time 0 min)?
Answer: The concentration at 0 min was 0 ng/mL.

Question: What about the concentration at 30 min (in vivo; male, CD-1, mouse, in vivo, po, 100 mg/kg, Mean plasma concentration, mouse 100 mg/kg p.o., sampling time 30 min) of the same compound?
Answer: The concentration at 30 min was > 1200 ng/mL.

Question: And the concentration at 90 min (in vivo; male, CD-1, mouse, in vivo, po, 100 mg/kg, Mean plasma concentration, mouse 100 mg/kg p.o., sampling time 90 min)?
Answer: The concentration at 90 min was 713 ± 411 ng/mL.

Question: What about the concentration at 240 min (in vivo; male, CD-1, mouse, in vivo, po, 100 mg/kg, Mean plasma concentration, mouse 100 mg/kg p.o., sampling time 240 min) of the same compound?
Answer: The concentration at 240 min was 373 ± 108 ng/mL.

Question: What about the concentration at 480 min (in vivo; male, CD-1, mouse, in vivo, po, 100 mg/kg, Mean plasma concentration, mouse 100 mg/kg p.o., sampling time 480 min) of the same compound?
Answer: Its concentration at 480 min is 43.2 ± 44 ng/mL.

Question: What about the Mean plasma concentration (in vivo; mouse 100 mg/kg p.o., sampling time 30 min) of the same compound?
Answer: Its Mean plasma concentration is 1297.6 ± 678.0 ng/mL.

Question: What about the IC50 (human CDK7–cyclin H–MAT1) of the same compound?
Answer: Its IC50 is < 5 nM.

Question: What about the “residual activity in the presence of LDC4297” value (CDK7–cyclin H–MAT1) of the same compound?
Answer: The value was 2%.

Question: What about the “PAMPA (% Flux)” value (PAMPA) of the same compound?
Answer: Its value is 76.25 % Flux.

Question: What about the “secondary targeting activity against vCDK/pUL97” value (HCMV-encoded vCDK/pUL97) of the same compound?
Answer: Its value is “lack of a secondary targeting activity”.

Question: And the “Plasma stability (% remain) human” value [1]?
Answer: Its value is 91.6 % remain.

Question: And the fraction unbound [2]?
Answer: The fraction unbound was 0.0951.

Question: And the EC50 (HCMV AD169-GFP)?
Answer: Its EC50 is 24.5 ± 1.3 nM.

Question: And the Papp A→B ([3]; A→B)?
Answer: Its Papp A→B is 15.4 ×10⁻⁶ cm/s.

Question: And the efflux ratio ([3]; efflux ratio, read-out: Caco-2 permeability B→A / A→B)?
Answer: Its efflux ratio is 1.57.

Question: And the solubility (Solubility (SolRank))?
Answer: The solubility was 373 µM (≈ 162 µg/mL).

Question: And the “Plasma stability (% remain) mouse” value [4]?
Answer: The value was 100.0 % remain.

Question: And the fraction unbound [5]?
Answer: The fraction unbound was 0.142.
